Measurements taken from EP0889898B1, “MORPHOLINYL ANTHRACYCLINE DERIVATIVES” (PHARMACIA & UPJOHN S.p.A., priority 1996, dated 1998).

Test system: L1210 leukemia cells
Test: In vitro cytotoxic activity, growth inhibition test (colony growth), 48h treatment
Format: cell-based
Conditions: ratio of IC50 values versus compound 1
Description: 3'-Deamino-3",4'-anhydro-[2"(S)-methoxy-3"(R)-hydroxy-4"-morpholinyl]doxorubicin 2a was tested in vitro on L1210 leukemia cells in comparison with 3'-deamino-3'-[2"(S)-methoxy-4"-morpholinyl]doxorubicin (1). The cytotoxic activity is reported as IC50, the concentration inhibiting 50% of colony growth, calculated on concentration response curves. […]

SMILES: COc1cccc2c1C(=O)c1c(O)c3c(c(O)c1C2=O)CC(O)(C(=O)CO)CC3OC1CC2C(OC3C(OC)OCCN23)C(C)O1 [Compound 2a, 3'-deamino-3"-4'-anhydro-[2"(S)-methoxy-3"(R)-hydroxy-4"-morpholinyl]doxorubicin]
- fold more potent than compound 1: 2.5x10^3 fold
